Results on six compounds are retold here after PubChem BioAssay (NCI).

Each structure is given as a SMILES string.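 Each compound was tested at five concentrations against cells in 96-well plates for 48 hours. The concentration for full growth arrest is given as TGI.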

Among the test systems are A549 NSCLC; HOP-62 NSCLC; HS 578T breast; MALME-3M melanoma; MDA-MB-435; MOLT-4 leukemia; OVCAR-5 ovarian; SK-MEL-2 melanoma; SNB-75 CNS; T-47D breast; U251 CNS.
Common to all, as to test: NCI-60 cell line screen, 48 h

With `CC12CCC(C/C1=N\NC(N)=O)C2(C)C` (stereo unspecified), the TGI in the test with A549 NSCLC, in the test with HOP-62 NSCLC, in the test with HS 578T breast, in the test with MALME-3M melanoma, in the test with MDA-MB-435 and in the test on MOLT-4 leukemia was > 100 µM throughout. For the same compound, the TGI in the test with OVCAR-5 ovarian, in the test on SK-MEL-2 melanoma, with SNB-75 CNS, in the test with T-47D breast and in the test with U251 CNS was > 100 µM throughout.
As for `Cc1ccc(C(=O)c2[nH]c(Nc3cc(C)ccn3)c(C(=S)Nc3ccccc3)c2N)cc1`, the TGI with A549 NSCLC, with HOP-62 NSCLC, in the test on HS 578T breast, with MALME-3M melanoma, in the test on MDA-MB-435 and with MOLT-4 leukemia was > 100 µM in each case. The TGI with OVCAR-5 ovarian, with SK-MEL-2 melanoma, with SNB-75 CNS, in the test on T-47D breast and in the test on U251 CNS was > 100 µM in each case.
Turning to `O=C(/C=C1\C[C@H]2C=Nc3ccccc3C(=O)N2C1)NCCCCCNC(=O)/C=C1\C[C@H]2C=Nc3ccccc3C(=O)N2C1`, the TGI in the test on A549 NSCLC is 54.6 µM; with HOP-62 NSCLC it was 31.8 µM; in the test with HS 578T breast, > 67.6 µM; in the test on MALME-3M melanoma, 7.09 µM; in the test on MDA-MB-435, 19 µM; in the test with MOLT-4 leukemia, > 100 µM. Moreover, the TGI is 33.7 µM in the test on OVCAR-5 ovarian; 29.2 µM in the test on SK-MEL-2 melanoma; 28.4 µM in the test on SNB-75 CNS; 15.7 µM in the test with T-47D breast; 9.05 µM in the test with U251 CNS.
For `O=c1c(Cc2ccccc2)c(-c2ccccc2)[nH]n1C1=NCCN1`, the TGI with A549 NSCLC, with HOP-62 NSCLC, with HS 578T breast, with MALME-3M melanoma, in the test on MDA-MB-435 and in the test with MOLT-4 leukemia was > 100 µM throughout. For the same compound, the TGI with OVCAR-5 ovarian, in the test on SK-MEL-2 melanoma, with SNB-75 CNS, in the test with T-47D breast and with U251 CNS was > 100 µM throughout.
For the compound `COc1ccc(N2C(=O)C3c4[nH]c5ccccc5c4C4C(C)CCCC4C3C2=O)cc1` (stereo unspecified), the TGI is > 100 µM in the test with A549 NSCLC; > 96.2 µM in the test on HOP-62 NSCLC; 96 µM in the test on HS 578T breast; 52.6 µM in the test on MALME-3M melanoma; > 30.2 µM with MDA-MB-435; > 100 µM in the test on MOLT-4 leukemia. For the same compound, the TGI was > 100 µM with OVCAR-5 ovarian; > 100 µM with SK-MEL-2 melanoma; > 77 µM in the test with SNB-75 CNS; > 100 µM with T-47D breast; > 100 µM in the test with U251 CNS.
`COn1cc(CO)c2ccccc21`: the TGI in the test with A549 NSCLC, with HOP-62 NSCLC, with HS 578T breast, in the test on MALME-3M melanoma, with MDA-MB-435 and in the test with MOLT-4 leukemia was > 100 µM throughout. Besides, the TGI is 42.5 µM with OVCAR-5 ovarian; > 100 µM in the test with SK-MEL-2 melanoma; > 100 µM in the test with SNB-75 CNS; > 100 µM in the test on T-47D breast; > 100 µM with U251 CNS.
